Values quoted from earlier work in patent US8652504B2, “Solid polymer delivery compositions and methods for use thereof” (Medivas, LLC, priority 2005, dated 2014).

Legend:
nerve impulses = details: local anesthetic
[1] = in vivo

| serum bupivacaine level (one patient receiving 0.5% intra-articular bupivacaine at 4 mL/hr) [µg/mL] | SMILES | duration of action (nerve impulses) [h] | morphine requirements and subjective pain scores (intra-articular bupivacaine (up to 0.5%) at 4 mL/hr, first 24 hours after surgery) | serum bupivacaine level at which toxicity has been reported / generally considered toxic [1] [µg/mL] |
| --- | --- | --- | --- | --- |
|  | CCN(CC)CC(=O)Nc1c(C)cccc1C [lidocaine] | 1 to 2 |  |  |
| 1.2 | CCCCN1CCCCC1C(=O)Nc1c(C)cccc1C (centres unmarked) [bupivacaine] | 6 to 8 | neither reduced morphine requirements nor decreased subjective pain scores | 1.0 |
